Data: patent US10054581B1, “Inhibitors of notch signaling pathway and use thereof in treatment of cancers” (Ecole Polytechnique Federale de Lausanne (EPFL), priority 2011, dated 2018)
Entries after “also recorded” stand apart in the source; their conditions may differ.

Assays:
[1] = tested on: Notch signalling via DL4:N1 ligand-receptor pair (Notch1); assay: DL4:N1 coculture assay, Notch driven luciferase reporter; assay type: cell-based, mouse; conditions: for DL4:N1 (Notch1) driven pathway activation: 10 μM, 24 hours
Excerpt: Mouse DL4-IRES dsRED cDNA was cloned into a pENTR1 vector (Invitrogen®) and finally shuttled into a destination lentivirus vector using Gateway cloning strategy (Invitrogen). A Phosphoglycerate kinase (PGK) promoter drove the expression of DL4 protein. DL4-lentiviral particles were produced in 293T cells by cotransfection of DL4-lentivirus vector, Gag/pol expression plasmid and plasmid encoding for viral envelope proteins. To overexpress Notch1 protein, mouse full length Notch1 cDNA was a cloned in a pCDNA3.1-IRES-puromycin vector. Notch1 cDNA was cloned upstream of IRES-puromycin between HindIII and XbaI restriction sites. A CMV promoter controlled the expression of Notch1 protein.
To measure the Notch signalling activation, CSL/RBP-jk consensus DNA binding sequences were cloned in a head to tail conformation in the pGL4 luciferase vector (Promega), thus named 12×CSL/RBP-jjk luciferase vector. In order to determine the Notch pathway activation in chemical compound screening assay, 12×CSL/RBP-jk consensus DNA binding sequences were cloned into pGL4.26.luciferase vector (Promega). As an internal control for transfection efficiency, SV40 Renilla vector was used (Promega).
In order to generate DL4 and N1 stable cell lines, HeLa cell were bought from ATCC (catalog # CCL-2). To generate DL4 stable lines, cells were transduced with DL4-lentiviral particles. DL4 stable clones were selected using puromycin. High DL4 expressing clones were sorted using antibodies against DL4 with Fluorescence activated cell sorting (FACS). To generate N1 stable line, cell were transfected with a pCDNA3.1+(Invitrogen) plasmid containing mouse full length Notch1 under the control of CMV promoter. To select for Notch1 expressing clones, an IRES puromycin cassette was cloned downstream of Notch1 cDNA. HeLa cells expressing high levels of Notch1 were enriched by FACS using anti-Notch1 antibodies. DL4- and N1-HeLa cells were cultured in DMEM (GIBCO, Invitrogen), 10% FCS and 10 ug/ml of puromycin (Sigma).
For chemical library screen, the coculture assay was performed as follows. N1-HeLa cells were cotransfected in 10 cm tissue culture dishes with 16 μg of pGL4.26. 12×CSL.luciferase vector/plate, 4 μg of Notch1 expression plasmid/plate, and 200 ng of SV40 Renilla vector/plate. DL4- and N1-HeLa cells were detached from the plate by using 0.5 mM EDTA (1×PBS). The both cell populations were counted and mixed in 1:1 ratio (5,000:5,000 cells/well in a 384 well plate) and dispensed into 384 well plates (white, clear bottom, Corning) using multidrop Combi plate dispenser. The assay plates were pre-dispensed (using automated Biomek 3000 liquid handler) with chemical compound libraries (Microsource NIMDS, Maybridge Hitfinder and Prestwick) to give a final concentration of 10 μM. The final assay volume was 22 μls. Twenty-four hours later, growth media was aspirated and cells were lysed with 1× Passive lysis buffer for 10 minutes at room temperature. Luciferase activity was measured using Luciferase Assay Reagent II and Renilla values were determined by using Stop and Glow reagent (Dual luciferase assay system, Cat #E1980, Promega). Luciferase and renilla readouts were taken using Tecan® F500 (Tecan) multiplate reader. All the liquid handling steps (aspiration of the medium, dispensing of Passive lysis buffer, Luciferase Assay Reagent II and Stop and Glow reagents) were performed using ELF406 liquid handler.
In order to identify novel modulators of the Notch pathway, Applicants have established a coculture assay in which DL4 ligand expressing HeLa cells were cultured with N1 HeLa cells, thereby activating the Notch pathway. The use of a DL4 and N1 HeLa cell coculture system mimics physiological conditions of cell-cell communication between ligand and receptor expressing cells. The in vitro generation of a controlled receptor-ligand assay system allowed Applicants to modify and monitor the Notch signal intensity by γ-secretase inhibitors. […]

[2] = tested on: NICD/MAML1 Notch transcriptional activation complex; assay: MAML1 rescue: HeLa cells co-transfected with NICD and MAML1-FLAG, 12×CSL luciferase; assay type: cell-based; conditions: 24 hours
Protocol: HeLa cells were co-transfected 800 ng of NICD+3 μg of pCDNA3.1 or 800 ng of NICD+1 μg of MAML1-FLAG or 800 ng of NICD+3 μg of MAML1-FLAG expression vectors. To measure Notch pathway activation, pGL4.26-12×CSL luciferase plasmid was also introduced into the cells. SV40 renilla was used as an internal control. Cells transfected with different combinations and amounts of plasmid were treated with DMSO or increasing concentration of 6-(4-Tert-Butylphenoxy)Pyridin-3-Amine (I3) (1, 2.5, 5 and 10 μM) for 24 hours. 12×CSL driven luciferase activity was measured using dual luciferase assay system.
NICD-GFP overexpression studies were performed using pEGFP-C1-NICD expression plasmid. The FLAG-CMV2 plasmid expressing MAML1-FLAG was a kind gift from Dr. Lizi Wu, Harvard Medical School, Boston.
To further investigate the mechanism of action of 6-(4-Tert-Butylphenoxy)Pyridin-3-Amine (I3), Applicants speculated that 6-(4-Tert-Butylphenoxy)Pyridin-3-Amine (I3) might be targeting one of the components of the transcriptional activation complex. The over expression of this target protein may titrate out 6-(4-Tert-Butylphenoxy)Pyridin-3-Amine (I3) compound and thus rescue 6-(4-Tert-Butylphenoxy)Pyridin-3-Amine (I3) induced pathway inhibition. […] The Notch pathway activation was measured by introducing 12×CSL luciferase plasmid. […]

Row | Compound | downregulation of Notch signalling activation ([1]; 10 μM DAPT vs DMSO, 384 well plate) | DL4:N1 (Notch1) driven pathway activation [1] | Notch signalling, NICD + 1 μg MAML1 ([2]; 800 ng NICD + 1 μg MAML1-FLAG, I3 1-10 μM) | Notch signalling, NICD alone (no MAML1) ([2]; 800 ng NICD, I3 1, 2.5, 5 and 10 μM)
1 | C[C@H](NC(=O)Cc1cc(F)cc(F)c1)C(=O)N[C@H](C(=O)OC(C)(C)C)c1ccccc1 [DAPT, N—[N-(3,5-difluorophenacetyl-Lalanyl)]-(S)-phenylglycine t-butyl ester, reference compound] | 10 fold | block Notch1 and Notch2 induced pathway activation |  | 
2 | CC(C)(C)c1ccc(Oc2ccc(N)cn2)cc1 [I3, 6-(4-Tert-Butylphenoxy)Pyridin-3-Amine] |  | caused an inhibition of Notch signalling via both DL4:N1 and DL4:N2 ligand-receptor pairs; also recorded: block Notch1 and Notch2 induced pathway activation | can block Notch signalling in a concentration dependent manner | can block Notch signalling in a concentration dependent manner; also recorded: could block Notch signalling activations
